Data as given in US20230183292A1, “IMMUNOMODULATORS” (priority 2020, published 2023).
Starred links: 1 amine or outer side, 2 acyl side, 3 side chain; linkers in the order of their positions; H or OH if unused. Positions of bridges follow the written chain, without caps; N, C: chain ends. Non-standard residues stand in square brackets, D forms with d. Residues, ends and D or L forms follow the SMILES beside them. Groups on a side chain read outwards from the residue. *: point of attachment. X2 = C[C@H](CCC(=O)NCCCN(CCCCNC(=O)CC[C@@H](C)[C@@H]1CC[C@H]2[C@@H]3[C@H](O)C[C@@H]4C[C@H](O)CC[C@]4(C)[C@H]3C[C@H](O)[C@@]21C)*)[C@H]1CC[C@H]2[C@@H]3[C@H](O)C[C@@H]4C[C@H](O)CC[C@]4(C)[C@H]3C[C@H](O)[C@]12C; X25 = C[C@H](CCC(=O)O)[C@H]1CC[C@H]2[C@@H]3C(=O)C[C@@H]4CC(NC[C@H](N[*:1])C(=O)[*:2])CC[C@]4(C)[C@H]3CC[C@]12C; Cholyl = C[C@H](CCC(=O)*)[C@H]1CC[C@H]2[C@@H]3[C@H](O)C[C@@H]4C[C@H](O)CC[C@]4(C)[C@H]3C[C@H](O)[C@]12C; Dehydrocholoyl = C[C@H](CCC(=O)*)[C@H]1CC[C@H]2[C@@H]3C(=O)C[C@@H]4CC(=O)CC[C@]4(C)[C@H]3CC(=O)[C@]12C; X14 = C[C@H](CCC(=O)*)[C@H]1CC[C@H]2[C@H]3C(C[C@H](O)[C@]12C)[C@@]1(C)CC[C@@H](O)C[C@H]1C[C@H]3O; X10 = C[C@H](CCC(=O)*)[C@H]1CC[C@H]2[C@@H]3C(=O)C[C@@H]4C[C@H](O)CC[C@]4(C)[C@H]3CC(=O)[C@]12C; Trp(1-CH2CO) = O=C([C@H](Cc1cn(CC(=O)[*:3])c2ccccc12)N[*:1])[*:2]; X13 = CC(C)CNC(=O)Cn1cc(C[C@H](N[*:1])C(=O)[*:2])c2ccccc21; X34 = CCCCOC(=O)Cn1cc(C[C@H](N[*:1])C(=O)[*:2])c2ccccc21; Trp(1-CH2COOH) = N[C@@H](Cc1cn(CC(=O)O)c2ccccc12)C(=O)O; X32 = CCCNC(=O)Cn1cc(C[C@H](N[*:1])C(=O)[*:2])c2ccccc21; X1 = NCCNC(=O)Cn1cc(C[C@H](N[*:1])C(=O)[*:2])c2ccccc21; X28 = O=C(C[C@@H](Cc1ccc(O)cc1)C(=O)[*:1])C[*:2]; Pro(4R-Me) = C[C@H]1CN[C@H](C(=O)O)C1; Hyp = O=C(O)[C@@H]1C[C@@H](O)CN1; NMeNle = CCCC[C@H](NC)C(=O)O; NMeA = CN[C@@H](C)C(=O)O; Dab = NCC[C@H](N)C(=O)O; Dap = NC[C@H](N)C(=O)O

What follows are compounds tested against T1, PD-1/PD-L1 (Homo sapiens, UniProt Q9NZQ7) (assay: PD-1/PD-L1 Homogenous Time-Resolved Fluorescence (HTRF) binding assay). Details: PD-L1-His 10 nM, PD-1-Ig 20 nM; read-out: HTRF IC50.
T1 construct: TVMV protease site (C); made in house; host or cells: HEK293T cells
T1 sequence (Q9NZQ7 18-239): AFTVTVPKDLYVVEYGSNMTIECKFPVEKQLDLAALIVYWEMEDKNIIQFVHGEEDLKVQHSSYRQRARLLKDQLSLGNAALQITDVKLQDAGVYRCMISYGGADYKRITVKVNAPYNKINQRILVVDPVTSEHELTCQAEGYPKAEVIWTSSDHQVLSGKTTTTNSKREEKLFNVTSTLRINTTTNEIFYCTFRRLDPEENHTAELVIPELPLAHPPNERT
Method in brief: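 Inhibitors pre-incubated 15 min with PD-L1-His (10 nM final) in dPBS, 0.1% BSA, 0.05% Tween-20, then 15 min with PD-1-Ig (20 nM final). Eu-cryptate anti-Ig (1 nM) and APC anti-His (20 nM) added, 30 min equilibration; HTRF 665/620 nm ratio. Human ECD proteins from HEK293T.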
Compound `CCCC[C@H]1C(=O)N(C)[C@@H](CCCC)C(=O)N[C@@H](CC(C)C)C(=O)N[C@H](C(=O)NCC(N)=O)CSCC(=O)N[C@@H](Cc2ccc(O)cc2)C(=O)N(C)[C@@H](C)C(=O)N[C@@H](CC(N)=O)C(=O)N2CCC[C@H]2C(=O)N[C@@H](CNC(=O)CC[C@@H](C)[C@H]2CC[C@H]3[C@@H]4[C@H](O)C[C@@H]5C[C@H](O)CC[C@]5(C)[C@H]4C[C@H](O)[C@]23C)C(=O)N[C@@H](CC(C)C)C(=O)N2C[C@H](O)C[C@H]2C(=O)N[C@@H](Cc2c[nH]c3ccccc23)C(=O)N[C@@H](CCNC(=O)CC[C@@H](C)[C@H]2CC[C@H]3[C@@H]4[C@H](O)C[C@@H]5C[C@H](O)CC[C@]5(C)[C@H]4C[C@H](O)[C@]23C)C(=O)N[C@@H](Cc2cn(CC(=O)N(CCCCNC(=O)CC[C@@H](C)[C@@H]3CC[C@H]4[C@@H]5[C@H](O)C[C@@H]6C[C@H](O)CC[C@]6(C)[C@H]5C[C@H](O)[C@@]43C)CCCNC(=O)CC[C@@H](C)[C@H]3CC[C@H]4[C@@H]5[C@H](O)C[C@@H]6C[C@H](O)CC[C@]6(C)[C@H]5C[C@H](O)[C@]34C)c3ccccc23)C(=O)N1C` [Example 7001] ({CH2CO}-Y[NMeA]NP[Dap](Cholyl)L[Hyp]W[Dab](Cholyl)[Trp(1-CH2CO)](X2)[NMeNle][NMeNle]LCG-NH2; thioether N-14) has an IC50 of 2 nM.
For `CCCC[C@H]1C(=O)N(C)[C@@H](CCCC)C(=O)N[C@@H](CC(C)C)C(=O)N[C@H](C(=O)NCC(N)=O)CSCC(=O)N[C@@H](Cc2ccc(O)cc2)C(=O)N(C)[C@@H](C)C(=O)N[C@@H](CC(N)=O)C(=O)N2CCC[C@H]2C(=O)N[C@@H](CNC(=O)CNC(=O)CC[C@@H](C)[C@H]2CC[C@H]3[C@@H]4[C@H](O)C[C@@H]5C[C@H](O)CC[C@]5(C)[C@H]4C[C@H](O)[C@]23C)C(=O)N[C@@H](CC(C)C)C(=O)N2C[C@H](C)C[C@H]2C(=O)N[C@@H](Cc2c[nH]c3ccccc23)C(=O)N[C@@H](CCNC(=O)CNC(=O)CC[C@@H](C)[C@H]2CC[C@H]3[C@@H]4[C@H](O)C[C@@H]5C[C@H](O)CC[C@]5(C)[C@H]4C[C@H](O)[C@]23C)C(=O)N[C@@H](Cc2cn(CC(=O)NCCC)c3ccccc23)C(=O)N1C` [Example 2027] ({CH2CO}-Y[NMeA]NP[Dap]([Gly-Cholyl])L[Pro(4R-Me)]W[Dab]([Gly-Cholyl])[X32][NMeNle][NMeNle]LCG-NH2; thioether N-14), the IC50 was 990 nM.
`CCCC[C@H]1C(=O)N(C)[C@@H](CCCC)C(=O)N[C@@H](CC(C)C)C(=O)N[C@H](C(=O)NCC(N)=O)CSCC(=O)N[C@@H](Cc2ccc(O)cc2)C(=O)N(C)[C@@H](C)C(=O)N[C@@H](CC(N)=O)C(=O)N2CCC[C@H]2C(=O)N[C@@H](CNC(=O)CC[C@@H](C)[C@H]2CC[C@H]3[C@@H]4C(=O)C[C@@H]5C[C@H](O)CC[C@]5(C)[C@H]4CC(=O)[C@]23C)C(=O)N[C@@H](CC(C)C)C(=O)N2C[C@H](O)C[C@H]2C(=O)N[C@@H](Cc2c[nH]c3ccccc23)C(=O)N[C@@H](CCNC(=O)CC[C@@H](C)[C@H]2CC[C@H]3[C@@H]4C(=O)C[C@@H]5C[C@H](O)CC[C@]5(C)[C@H]4CC(=O)[C@]23C)C(=O)N[C@@H](Cc2cn(CC(=O)O)c3ccccc23)C(=O)N1C` [Example 1018] ({CH2CO}-Y[NMeA]NP[Dap](X10)L[Hyp]W[Dab](X10)[Trp(1-CH2COOH)][NMeNle][NMeNle]LCG-NH2; thioether N-14) showed an IC50 of 6.2 nM.
`CCCC[C@H]1C(=O)N(C)[C@@H](CCCC)C(=O)N[C@@H](CC(C)C)C(=O)N[C@H](C(=O)NCC(N)=O)CSCC(=O)N[C@@H](Cc2ccc(O)cc2)C(=O)N(C)[C@@H](C)C(=O)N[C@@H](CC(N)=O)C(=O)N2CCC[C@H]2C(=O)N[C@@H](CNC(=O)CC[C@@H](C)[C@H]2CC[C@H]3[C@@H]4[C@H](O)C[C@@H]5C[C@H](O)CC[C@]5(C)[C@H]4C[C@H](O)[C@]23C)C(=O)N[C@@H](CC(C)C)C(=O)N2C[C@H](O)C[C@H]2C(=O)N[C@@H](Cc2c[nH]c3ccccc23)C(=O)N[C@@H](CCNC(=O)CC[C@@H](C)[C@H]2CC[C@H]3[C@H]4C(C[C@H](O)[C@]23C)[C@@]2(C)CC[C@@H](O)C[C@H]2C[C@H]4O)C(=O)N[C@@H](Cc2cn(CC(=O)NCC(C)C)c3ccccc23)C(=O)N1C` (stereo partly drawn) [Example 2002] ({CH2CO}-Y[NMeA]NP[Dap](Cholyl)L[Hyp]W[Dab](X14)[X13][NMeNle][NMeNle]LCG-NH2; thioether N-14) showed an IC50 of 3300 nM.
`CCCC[C@H]1C(=O)N(C)[C@@H](CCCC)C(=O)N[C@@H](CC(C)C)C(=O)N[C@H](C(=O)NCC(N)=O)CSCC(=O)C[C@@H](Cc2ccc(O)cc2)C(=O)N(C)[C@@H](C)C(=O)N[C@@H](CC(N)=O)C(=O)N2CCC[C@H]2C(=O)N[C@@H](CNC2CC[C@@]3(C)[C@H](CC(=O)[C@@H]4[C@@H]3CC[C@]3(C)[C@@H]([C@H](C)CCC(=O)O)CC[C@@H]43)C2)C(=O)N[C@@H](CC(C)C)C(=O)N2C[C@H](O)C[C@H]2C(=O)N[C@@H](Cc2c[nH]c3ccccc23)C(=O)N[C@@H](CCN)C(=O)N[C@@H](Cc2cn(CC(=O)O)c3ccccc23)C(=O)N1C` (stereo partly drawn) [Example 3004] ([NMeA]NP[X25]L[Hyp]W[Dab][Trp(1-CH2COOH)][NMeNle][NMeNle]LCG-NH2; linker N-13 via X28) was tested, and the IC50 was 41 nM.
`CCCCOC(=O)Cn1cc(C[C@@H]2NC(=O)[C@H](CCNC(=O)CNC(=O)CC[C@@H](C)[C@H]3CC[C@H]4[C@@H]5[C@H](O)C[C@@H]6C[C@H](O)CC[C@]6(C)[C@H]5C[C@H](O)[C@]34C)NC(=O)[C@H](Cc3c[nH]c4ccccc34)NC(=O)[C@@H]3C[C@@H](C)CN3C(=O)[C@H](CC(C)C)NC(=O)[C@H](CNC(=O)CNC(=O)CC[C@@H](C)[C@H]3CC[C@H]4[C@@H]5[C@H](O)C[C@@H]6C[C@H](O)CC[C@]6(C)[C@H]5C[C@H](O)[C@]34C)NC(=O)[C@@H]3CCCN3C(=O)[C@H](CC(N)=O)NC(=O)[C@H](C)N(C)C(=O)[C@H](Cc3ccc(O)cc3)NC(=O)CSC[C@@H](C(=O)NCC(N)=O)NC(=O)[C@H](CC(C)C)NC(=O)[C@H](CCCC)N(C)C(=O)[C@H](CCCC)N(C)C2=O)c2ccccc21` [Example 2033] ({CH2CO}-Y[NMeA]NP[Dap]([Gly-Cholyl])L[Pro(4R-Me)]W[Dab]([Gly-Cholyl])[X34][NMeNle][NMeNle]LCG-NH2; thioether N-14) showed an IC50 of 4.2 nM.
`CCCC[C@H]1C(=O)N(C)[C@@H](CCCC)C(=O)N[C@@H](CC(C)C)C(=O)N[C@H](C(=O)NCC(N)=O)CSCC(=O)N[C@@H](Cc2ccc(O)cc2)C(=O)N(C)[C@@H](C)C(=O)N[C@@H](CC(N)=O)C(=O)N2CCC[C@H]2C(=O)N[C@@H](CNC(=O)CC[C@@H](C)[C@H]2CC[C@H]3[C@@H]4C(=O)C[C@@H]5CC(=O)CC[C@]5(C)[C@H]4CC(=O)[C@]23C)C(=O)N[C@@H](CC(C)C)C(=O)N2C[C@H](O)C[C@H]2C(=O)N[C@@H](Cc2c[nH]c3ccccc23)C(=O)N[C@@H](CCNC(=O)CC[C@@H](C)[C@H]2CC[C@H]3[C@@H]4C(=O)C[C@@H]5CC(=O)CC[C@]5(C)[C@H]4CC(=O)[C@]23C)C(=O)N[C@@H](Cc2cn(CC(=O)NCCN)c3ccccc23)C(=O)N1C` [Example 2019] ({CH2CO}-Y[NMeA]NP[Dap](Dehydrocholoyl)L[Hyp]W[Dab](Dehydrocholoyl)[X1][NMeNle][NMeNle]LCG-NH2; thioether N-14) gave an IC50 of 19 nM.
Compound `CCCC[C@H]1C(=O)N(C)[C@@H](CCCC)C(=O)N[C@@H](CC(C)C)C(=O)N[C@H](C(=O)NCC(N)=O)CSCC(=O)N[C@@H](Cc2ccc(O)cc2)C(=O)N(C)[C@@H](C)C(=O)N[C@@H](CC(N)=O)C(=O)N2CCC[C@H]2C(=O)N[C@@H](CNC(=O)CC[C@@H](C)[C@H]2CC[C@H]3[C@@H]4[C@H](O)C[C@@H]5C[C@H](O)CC[C@]5(C)[C@H]4C[C@H](O)[C@]23C)C(=O)N[C@@H](CC(C)C)C(=O)N2C[C@H](O)C[C@H]2C(=O)N[C@@H](Cc2c[nH]c3ccccc23)C(=O)N[C@@H](CCNC(=O)CC[C@@H](C)[C@H]2CC[C@H]3[C@@H]4[C@H](O)C[C@@H]5C[C@H](O)CC[C@]5(C)[C@H]4C[C@H](O)[C@]23C)C(=O)N[C@@H](Cc2cn(CC(=O)NCCC)c3ccccc23)C(=O)N1C` [Example 2023] ({CH2CO}-Y[NMeA]NP[Dap](Cholyl)L[Hyp]W[Dab](Cholyl)[X32][NMeNle][NMeNle]LCG-NH2; thioether N-14) has an IC50 of 660 nM.
Work on `CCCC[C@H]1C(=O)N(C)[C@@H](CCCC)C(=O)N[C@@H](CC(C)C)C(=O)N[C@H](C(=O)NCC(N)=O)CSCC(=O)N[C@@H](Cc2ccc(O)cc2)C(=O)N(C)[C@@H](C)C(=O)N[C@@H](CC(N)=O)C(=O)N2CCC[C@H]2CN[C@@H](CNC(=O)CC[C@@H](C)[C@H]2CC[C@H]3[C@@H]4[C@H](O)C[C@@H]5C[C@H](O)CC[C@]5(C)[C@H]4C[C@H](O)[C@]23C)C(=O)N[C@@H](CC(C)C)C(=O)N2C[C@H](O)C[C@H]2C(=O)N[C@@H](Cc2c[nH]c3ccccc23)C(=O)N[C@@H](CCNC(=O)CC[C@@H](C)[C@H]2CC[C@H]3[C@@H]4[C@H](O)C[C@@H]5C[C@H](O)CC[C@]5(C)[C@H]4C[C@H](O)[C@]23C)C(=O)N[C@@H](Cc2cn(CC(=O)NCC(F)(F)F)c3ccccc23)C(=O)N1C` [Example 2010] yielded an IC50 of 4700 nM.
